≈ marks a conversion by molar mass, not a printed value.
Key:
Assay type in all cases: cell-based
[1] = test system: STAPHYLOCOCCUS AUREUS ATCC 6538P; experiment: In vitro antibacterial activity, MIC, BHI agar dilution; details: S. aureus ATCC 6538P, 35-37° C., 20 to 24 hours, unit assumed
[2] = test system: STAPHYLOCOCCUS AUREUS A5177; experiment: as above; details: S. aureus A5177, unit assumed
[3] = test system: STAPHYLOCOCCUS AUREUS A-5278; experiment: as above; details: S. aureus A-5278, unit assumed
[4] = test system: STAPHYLOCOCCUS AUREUS CMX 642A; experiment: as above; details: S. aureus CMX 642A, unit assumed
[5] = test system: STAPHYLOCOCCUS AUREUS NCTC10649M; experiment: as above; details: S. aureus NCTC10649M, unit assumed
[6] = test system: STAPHYLOCOCCUS AUREUS CMX 553; experiment: as above; details: S. aureus CMX 553, unit assumed
[7] = test system: STAPHYLOCOCCUS AUREUS 1775; experiment: as above; details: S. aureus 1775, unit assumed
[8] = test system: STAPHYLOCOCCUS EPIDERMIDIS 3519; details: S. epidermidis 3519; BHI agar; unit assumed
EN[…] ATCC 8043 = experiment: In vitro antibacterial activity, MIC, BHI agar dilution; details: E. faecium ATCC 8043, unit assumed
In short: (§1)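 BHI agar dilution: twelve plates with successive compound dilutions, inoculated by replicator with 1:100 culture dilutions (1:10 for slow growers such as Micrococcus and Streptococcus), 20 to 24 hours at 35-37° C. MIC was the lowest concentration giving no growth, slight haze or sparse isolated colonies versus drug-free control; erythromycin A as class reference.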

M[…] ATCC 4698 = experiment: as above; details: M. luteus ATCC 4698, unit assumed
In short: as §1

M[…] ATCC 9341 = experiment: as above; details: M. luteus ATCC 9341, unit assumed
In short: as §1

STR[…] 508 = experiment: as above; details: S. agalactiae CMX 508, unit assumed
In short: as §1

[9] = test system: STREPTOCOCCUS BOVIS A-5169; experiment: as above; details: S. bovis A-5169, unit assumed
[10] = test system: STREPTOCOCCUS PYOGENES EES61; experiment: as above; details: S. pyogenes EES61, unit assumed
[11] = test system: STREPTOCOCCUS PYOGENES 930; experiment: as above; details: S. pyogenes 930, unit assumed
[12] = test system: STREPTOCOCCUS PYOGENES PIU 2548; experiment: as above; details: S. pyogenes PIU 2548, unit assumed
ESCHERICHIA COLI JUHL = details: E. coli JUHL; BHI agar; unit assumed
ESCHERICHIA COLI SS = experiment: In vitro antibacterial activity, MIC, BHI agar dilution; details: E. coli SS, unit assumed
ESCHERICHIA COLI DC-2 = experiment: as above; details: E. coli DC-2, unit assumed
ESCHERICHIA COLI H560 = experiment: as above; details: E. coli H560, unit assumed
ESCHERICHIA COLI KNK 437 = details: E. coli KNK 437; BHI agar; unit assumed
[13] = test system: ENTEROBACTER AEROGENES ATCC 13048; experiment: In vitro antibacterial activity, MIC, BHI agar dilution; details: E. aerogenes ATCC 13048, unit assumed
[14] = test system: KLEBSIELLA PNEUMONIAE ATCC 8045; experiment: as above; details: K. pneumoniae ATCC 8045, unit assumed
[15] = test system: PROVIDENCIA STUARTII CMX 640; details: P. stuartii CMX 640; BHI agar; unit assumed
[16] = test system: PSEUDOMONAS AERUGINOSA BMH10; experiment: In vitro antibacterial activity, MIC, BHI agar dilution; details: P. aeruginosa BMH10, unit assumed
[17] = test system: PSEUDOMONAS AERUGINOSA 5007; experiment: as above; details: P. aeruginosa 5007, unit assumed
[18] = test system: PSEUDOMONAS AERUGINOSA K799/WT; experiment: as above; details: P. aeruginosa K799/WT, unit assumed
[19] = test system: PSEUDOMONAS AERUGINOSA K799/61; experiment: as above; details: P. aeruginosa K799/61, unit assumed
PSEUDOMONAS CEPACIA 296I = experiment: as above; details: P. cepacia 296I, unit assumed
[20] = test system: PSEUDOMONAS AERUGINOSA DPHD-5263; experiment: as above; details: P. aeruginosa DPHD-5263, unit assumed
[21] = test system: PSEUDOMONAS AERUGINOSA DPHD-2862; experiment: as above; details: P. aeruginosa DPHD-2862, unit assumed
CANDIDA ALBICANS CCH 442 = experiment: as above; details: C. albicans CCH 442, unit assumed
[22] = test system: MYCOBACTERIUM SMEGMATIS ATCC 114; experiment: as above; details: M. smegmatis ATCC 114, unit assumed

Structure (SMILES)	MIC [1]	MIC [2]	MIC [3]	MIC [4]	MIC [5]	MIC [6]	MIC [7]	MIC [8]	MIC (EN[…] ATCC 8043)	MIC (M[…] ATCC 4698)	MIC (M[…] ATCC 9341)	MIC (STR[…] 508)	MIC [9]	MIC [10]	MIC [11]	MIC [12]	MIC (ESCHERICHIA COLI JUHL)	MIC (ESCHERICHIA COLI SS)	MIC (ESCHERICHIA COLI DC-2)	MIC (ESCHERICHIA COLI H560)	further results
CC[C@H]1OC(=O)[C@H](C)C(=O)[C@H](C)[C@@H](O[C@@H]2O[C@H](C)C[C@H](N(C)C)[C@H]2O)[C@](C)(OC)C[C@@H](C)C2=NCC(COC(=O)c3ccc4ccccc4n3)N3C(=O)O[C@@]1(C)[C@H]3[C@H]2C (stereo partly drawn) [Example 142]	0.2 µg/mL (≈ 0.243 µM)	0.2 µg/mL (≈ 0.243 µM)	> 100 µg/mL	0.2 µg/mL (≈ 0.243 µM)	0.2 µg/mL (≈ 0.243 µM)	0.2 µg/mL (≈ 0.243 µM)	> 100 µg/mL	0.2 µg/mL (≈ 0.243 µM)	0.1 µg/mL (≈ 0.122 µM)	0.1 µg/mL (≈ 0.122 µM)	0.02 µg/mL (≈ 0.0243 µM)	0.01 µg/mL (≈ 0.0122 µM)	0.01 µg/mL (≈ 0.0122 µM)	0.01 µg/mL (≈ 0.0122 µM)	> 100 µg/mL	0.39 µg/mL (≈ 0.474 µM)	50 µg/mL (≈ 60.8 µM)	1.56 µg/mL (≈ 1.9 µM)	25 µg/mL (≈ 30.4 µM)	25 µg/mL (≈ 30.4 µM)	MIC (ESCHERICHIA COLI KNK 437): 100 µg/mL (≈ 122 µM); MIC [13]: > 100 µg/mL; MIC [14]: > 100 µg/mL; MIC [15]: > 100 µg/mL; MIC [16]: > 100 µg/mL; MIC [17]: > 100 µg/mL; MIC [18]: > 100 µg/mL; MIC [19]: 1.56 µg/mL (≈ 1.9 µM); MIC (PSEUDOMONAS CEPACIA 296I): > 100 µg/mL; MIC [20]: > 100 µg/mL; MIC [21]: > 100 µg/mL; MIC (CANDIDA ALBICANS CCH 442): > 100 µg/mL; MIC [22]: 1.56 µg/mL (≈ 1.9 µM)
CC[C@H]1OC(=O)[C@H](C)C(=O)[C@H](C)[C@@H](O[C@@H]2O[C@H](C)C[C@H](N(C)C)[C@H]2O)[C@](C)(OC)C[C@@H](C)C2=NCC(COC(=O)c3cc4ccccc4n3C)N3C(=O)O[C@@]1(C)[C@H]3[C@H]2C (stereo partly drawn) [Example 143]	0.1 µg/mL (≈ 0.121 µM)	0.2 µg/mL (≈ 0.242 µM)	50 µg/mL (≈ 60.6 µM)	0.2 µg/mL (≈ 0.242 µM)	0.2 µg/mL (≈ 0.242 µM)	0.2 µg/mL (≈ 0.242 µM)	50 µg/mL (≈ 60.6 µM)	0.2 µg/mL (≈ 0.242 µM)	0.02 µg/mL (≈ 0.0242 µM)	0.2 µg/mL (≈ 0.242 µM)	0.01 µg/mL (≈ 0.0121 µM)	0.02 µg/mL (≈ 0.0242 µM)	0.01 µg/mL (≈ 0.0121 µM)	0.02 µg/mL (≈ 0.0242 µM)	50 µg/mL (≈ 60.6 µM)	0.39 µg/mL (≈ 0.473 µM)	50 µg/mL (≈ 60.6 µM)	0.78 µg/mL (≈ 0.945 µM)	50 µg/mL (≈ 60.6 µM)	25 µg/mL (≈ 30.3 µM)	MIC (ESCHERICHIA COLI KNK 437): 50 µg/mL (≈ 60.6 µM); MIC [13]: > 100 µg/mL; MIC [14]: > 100 µg/mL; MIC [15]: > 100 µg/mL; MIC [16]: > 100 µg/mL; MIC [17]: > 100 µg/mL; MIC [18]: > 100 µg/mL; MIC [19]: 1.56 µg/mL (≈ 1.89 µM); MIC (PSEUDOMONAS CEPACIA 296I): 50 µg/mL (≈ 60.6 µM); MIC [20]: > 100 µg/mL; MIC [21]: > 100 µg/mL; MIC (CANDIDA ALBICANS CCH 442): 100 µg/mL (≈ 121 µM); MIC [22]: 0.2 µg/mL (≈ 0.242 µM)
CC[C@H]1OC(=O)[C@H](C)C(=O)[C@H](C)[C@@H](O[C@@H]2O[C@H](C)C[C@H](N(C)C)[C@H]2O)[C@](C)(OC)C[C@@H](C)C2=NCC(COC(=O)c3cccc4[nH]ccc34)N3C(=O)O[C@@]1(C)[C@H]3[C@H]2C (stereo partly drawn) [Example 144]	0.1 µg/mL (≈ 0.123 µM)	0.1 µg/mL (≈ 0.123 µM)	> 100 µg/mL	0.1 µg/mL (≈ 0.123 µM)	0.1 µg/mL (≈ 0.123 µM)	0.1 µg/mL (≈ 0.123 µM)	> 100 µg/mL	0.1 µg/mL (≈ 0.123 µM)	0.1 µg/mL (≈ 0.123 µM)	0.1 µg/mL (≈ 0.123 µM)	0.01 µg/mL (≈ 0.0123 µM)	≤ 0.005 µg/mL	≤ 0.005 µg/mL	≤ 0.005 µg/mL	100 µg/mL (≈ 123 µM)	0.39 µg/mL (≈ 0.481 µM)	50 µg/mL (≈ 61.7 µM)	0.78 µg/mL (≈ 0.962 µM)	50 µg/mL (≈ 61.7 µM)	50 µg/mL (≈ 61.7 µM)	MIC (ESCHERICHIA COLI KNK 437): 50 µg/mL (≈ 61.7 µM); MIC [13]: 100 µg/mL (≈ 123 µM); MIC [14]: 100 µg/mL (≈ 123 µM); MIC [15]: > 100 µg/mL; MIC [16]: > 100 µg/mL; MIC [17]: > 100 µg/mL; MIC [18]: > 100 µg/mL; MIC [19]: 0.78 µg/mL (≈ 0.962 µM); MIC (PSEUDOMONAS CEPACIA 296I): 50 µg/mL (≈ 61.7 µM); MIC [20]: > 100 µg/mL; MIC [21]: > 100 µg/mL; MIC (CANDIDA ALBICANS CCH 442): > 100 µg/mL; MIC [22]: 1.56 µg/mL (≈ 1.92 µM)

— patent publication US6274715A, “Tricyclic erythromycin derivatives” (priority 1997, dated 2001)
